The values that follow are results of earlier work, collected in US9446015B2, “Quinone based nitric oxide donating compounds for ophthalmic use” (NICOX SCIENCE IRELAND, priority 2012, dated 2016).

For orientation: IC50 means the concentration that inhibits the measured activity by half.

This data set concerns lipidic peroxidation of membrane lipids in rat hepatocytes (hepatic microsomal membranes). Conditions: Method B; from Chegaev et al.; read-out: Antioxidant activity IC50 μM (CL 95%); cited from earlier work.

`CC1=NN(c2ccccc2)C(=O)C1` [Edavarone]: the IC50 was 17 µM.
Regarding `COc1ccc2[nH]cc(CCNC(C)=O)c2c1` [Melatonin], the IC50 was 476 µM.
